Reference: publication PMC9369007 (International Journal of Molecular Sciences, 2022)

Key:
MCF-7 cells [1] = test: Cell cycle analysis by flow cytometry; format: cell-based, human; set-up: DNA Content %G0-G1 / DNA Content %S / DNA Content %G2-M / DNA Content %Pre G1: dose or concentration left out as unconfirmed; details: MCF-7, 24 h
Protocol: The cell cycle is a series of growth and development processes that culminate in DNA replication and cell division. G1 phase, S phase (synthesis), G2 phase, and M phase are the four different phases. We chose our promising chemical 27 based on the results of the MTT assay (Table 1) to further examine its effect on the apoptotic process and investigate its ability to play an active role in cell cycle progression in MCF-7 cells. MCF-7 cells were treated for 24 h with compound 27 at a concentration of […], and flow cytometry was performed in the presence of annexin V-FITC/PI.
(§1) Using the annexin V-FITC and PI apoptosis kit (eBioscience^TM, San Diego, CA, USA), the apoptosis detection was performed. MCF cells were plated onto a six-well plate at a 600,000 cells/mL density and then treated with compound 27 at […] after 24 h of incubation, and the assay was completed as previously described.
Cell cycle arrest and distribution was assessed, using the Propidium Iodide Flow Cytometry Kit (ab139418, Abcam, USA, CA, USA), followed by flow cytometry analysis according to the previous methodology.

MCF-7 cells [2] = test: Annexin V-FITC/PI dual staining apoptosis assay; format: cell-based, human; details: MCF-7, 2.0 µM, 24 h
Protocol: This test used the breast MCF-7 cell line to assess the percentage of apoptosis caused by compound 27, in which MCF-7 cells were treated with compound 27 at 2.0 µM concentration for 24 h to measure the percentage of apoptosis induced by compound 27. […] These findings are in line with statistics derived from DNA content.
Each sample’s histogram was separated into four quadrants to show viable (lower left quadrant), necrotic (higher left quadrant), apoptotic (lower right quadrant), and necrotic/late apoptotic (upper right quadrant) cells. The Annexin V Apoptosis Detection Kit is based on the finding that apoptotic cells can transport phosphatidylserine (PS) from the plasma membrane’s inner surface to the cell surface. As a result, the presence of PS on the cell surface is regarded as an important technique for detecting apoptotic cells. PS can be easily detected by labeling with a fluorescent compound of annexin V, a protein with a high affinity for PS, and then analyzing the results by flow cytometry. When annexin V and PI staining are performed simultaneously, the kit can distinguish between apoptosis and necrosis. Only when the plasma membrane is completely damaged may PI enter the cell. This allows early apoptotic cells (negative for PI but positive for PS) to be distinguished from late apoptotic and necrotic cells (positive for both PI and PS). […] Cells were tested using annexin V and PI double-staining flow cytometry, which detect both PS residues and DNA, respectively, to validate the potential to trigger apoptosis. They were then cultured for 24 h before being examined. The tested compound was able to produce considerable levels of cell death in a dose-dependent manner, according to analyses of early and late apoptosis (Table 4, Figure 2 and Figure 3).
as §1
The MCF-7 cells were treated with tested compounds 27 for 24 h and stained with annexin V-FITC/PI to detect externalization of PS from cell membrane and analyze apoptotic and necrotic cell population as previously described.

HepG2 and MCF-7 cells = test: DNA fragmentation, diphenylamine test; format: cell-based, human; details: 24 h at IC50 value, untreated control about 4.7 ± 0.2%
Protocol: Apoptosis is characterized by DNA fragmentation, which occurs in all stages of the process. The percentage of fragmented DNA released into the cytoplasm from apoptotic nuclei was determined using a diphenylamine test.
DNA fragmentation was quantitatively determined using a diphenylamine (DPA) reagent according to the method of Boraschi and Maurizi.

hMAO-A = target: T1, hMAO-A (Homo sapiens, UniProt P21397); test: MAO activity screening, hMAO-A; format: biochemical; details: tyramine at 2 × KM (0.8 mM); two independent experiments
T1 sequence (P21397 1-527): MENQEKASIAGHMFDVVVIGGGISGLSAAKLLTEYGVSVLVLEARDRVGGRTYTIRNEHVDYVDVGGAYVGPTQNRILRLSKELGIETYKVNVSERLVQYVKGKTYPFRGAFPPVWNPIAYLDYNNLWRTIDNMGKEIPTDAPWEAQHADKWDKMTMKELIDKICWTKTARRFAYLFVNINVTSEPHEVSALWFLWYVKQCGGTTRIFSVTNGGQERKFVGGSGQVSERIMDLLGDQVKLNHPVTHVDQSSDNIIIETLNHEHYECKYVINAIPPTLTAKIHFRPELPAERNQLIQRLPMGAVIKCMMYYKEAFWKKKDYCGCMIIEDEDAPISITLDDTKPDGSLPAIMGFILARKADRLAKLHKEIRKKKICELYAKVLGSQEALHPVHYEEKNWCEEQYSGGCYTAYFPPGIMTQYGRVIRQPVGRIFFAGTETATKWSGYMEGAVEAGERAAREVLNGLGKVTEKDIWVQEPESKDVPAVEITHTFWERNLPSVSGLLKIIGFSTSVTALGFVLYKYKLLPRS
Protocol: (§2) Here, the potent selective compound 27 was screened for measuring target selectivity against high structural similar membrane-bound human hMAO-A and hMAO-B at 10 µM in the presence of tyramine at 2 × KM (0.8 mM for MAO-A and 0.32 mM for MAO-B) (Table 5).
(§3) The coupled assay approach was used to evaluate MAO activity in which the product, H2O2, acts with horseradish peroxidase to convert 10-acetyl-3,7-dihydroxyphenoxazine to the fluorescent resorufin. The percent inhibition was computed from the top and bottom of the resultant curve using the equation for a three-parameter curve in GraphPad Prism v. 4, (Graphstats, New York, NY, USA).

hMAO-B = target: T2, hMAO-B (Homo sapiens, UniProt P27338); test: MAO activity screening, hMAO-B; format: biochemical; details: tyramine at 2 × KM (0.32 mM); two independent experiments
T2 sequence (P27338 1-520): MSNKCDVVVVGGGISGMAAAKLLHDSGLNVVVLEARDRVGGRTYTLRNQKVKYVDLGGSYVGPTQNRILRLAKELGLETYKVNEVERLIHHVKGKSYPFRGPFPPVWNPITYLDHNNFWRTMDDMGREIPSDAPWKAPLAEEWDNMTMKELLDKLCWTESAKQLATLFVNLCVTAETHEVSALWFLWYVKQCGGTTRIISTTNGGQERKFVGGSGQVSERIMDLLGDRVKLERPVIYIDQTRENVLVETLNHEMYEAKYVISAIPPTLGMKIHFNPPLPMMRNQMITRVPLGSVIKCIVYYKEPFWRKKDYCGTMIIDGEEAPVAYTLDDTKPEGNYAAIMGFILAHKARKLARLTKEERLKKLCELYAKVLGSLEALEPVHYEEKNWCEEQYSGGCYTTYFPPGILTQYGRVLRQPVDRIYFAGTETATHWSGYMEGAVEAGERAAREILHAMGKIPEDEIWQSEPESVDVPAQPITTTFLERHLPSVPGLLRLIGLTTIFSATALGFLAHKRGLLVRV
Protocol: as §2, §3

in vitro = details: human, WI38 normal lung fibroblast cells
MCF-7 cells [3] = test: MTT cytotoxicity assay, MCF-7; details: Homo sapiens, MCF7, 72 h, read-out: In Vitro Cytotoxicity IC50 MCF-7
Protocol: (§4) The in vitro cytotoxic testing of novel derivatives was performed against different three cancer cell lines, HepG2, MCF-7, and HCT116, using standard MTT assay as previously reported [22, 62, 63, 64].

HepG2 cells = test: MTT cytotoxicity assay, HepG2; details: Homo sapiens, HepG2, 72 h, read-out: In Vitro Cytotoxicity IC50 HepG2
Protocol: as §4

HCT116 cells = test: MTT cytotoxicity assay, HCT116; details: Homo sapiens, HCT-116, 72 h, read-out: In Vitro Cytotoxicity IC50 HCT116
Protocol: as §4

LSD1 demethylase = LSD1 demethylase (Homo sapiens, UniProt O60341); test: LSD1 demethylase inhibition assay
Protocol: The inhibition of LSD1 activity by our tested compounds was evaluated according to a previously reported procedure [65, 66, 67, 68] and as mentioned in the assay kit in Supplementary Materials.

SMILES: C=CCNc1nnc(-c2cc(-c3nnc(NCC=C)s3)cc(-c3nnc(NCC=C)s3)c2)s1 [Compound 27, 5,5′,5″-(benzene-1,3,5-triyl)tris(N-allyl-1,3,4-thiadiazol-2-amine)]
- Comment (cell cycle) (MCF-7 cells [1]): pre G1 Apoptosis and cell cycle arrest at G2-M
- DNA Content %G0-G1 (MCF-7 cells [1]): 35.15%
- DNA Content %G2-M (MCF-7 cells [1]): 35.59%
- DNA Content %Pre G1 (MCF-7 cells [1]): 37.11%
- DNA Content %S (MCF-7 cells [1]): 28.26%
- Apoptosis Early (MCF-7 cells [2]): 5.33%
- Apoptosis Late (MCF-7 cells [2]): 20.53%
- Apoptosis Total (MCF-7 cells [2]): 37.11%
- Enhancement of late apoptosis compared with untreated cells (MCF-7 cells [2]): 114 fold
- Necrosis (MCF-7 cells [2]): 11.25%
- Percentage of DNA fragmentation (HepG2 and MCF-7 cells): ~23 ± 1.2%
- IC50 (hMAO-A): 87.1 ± 2.36 µM
- IC50 (hMAO-B): > 100 µM
- IC50 at 72 h (in vitro): > 85 µM
- IC50 (MCF-7 cells [3]): 1520 ± 1020 nM
- IC50 (HepG2 cells): 24.7 ± 1.01 µM
- IC50 (HCT116 cells): 10.3 ± 0.15 µM
- IC50 (LSD1 demethylase; LSD1 inhibition IC50, as quoted in the docking section): 46.4 nM
- IC50 (LSD1 demethylase; LSD1 inhibitory IC50, Table 2, mean ± S.D., at least three tests): 46 ± 3 nM
